Data taken from the NIST ThermoML archive (doi:10.1016/j.jct.2008.01.002).
± gives the expanded uncertainty stated by the source.

Assay: not given
Settings: 298.15 K; 101.33 kPa; Liquid
Work on CCCOCCC [dipropyl ether] yielded a mass density of 741.81 ± 0.56 kg/m3. For CCCO [propan-1-ol], the mass density was 799.62 ± 0.79 kg/m3. CC(C)OC(C)C [diisopropyl ether] gave a mass density of 718.32 ± 0.96 kg/m3.

Same assay, conditions: 298.15 K; 101.33 kPa; Liquid; Vibrating tube method
For CC(C)O [propan-2-ol], the mass density was 782.69 ± 0.12 kg/m3.

Same assay, conditions: Liquid; Closed cell (Static) method
In the case of CCCOCCC [dipropyl ether], the Normal boiling temperature is reported as 90.01 ± 0.2 °C. With CCCO [propan-1-ol] the Normal boiling temperature was 96.60 ± 0.2 °C. CC(C)O [propan-2-ol] gave a Normal boiling temperature of 82.10 ± 0.2 °C. O [water] gave a Normal boiling temperature of 100.00 ± 0.2 °C. CC(C)OC(C)C [diisopropyl ether] gave a Normal boiling temperature of 68.2 ± 0.2 °C.

Assay: refractive index (Na D-line) (dimensionless)
Settings: 298.15 K; 101.33 kPa; Liquid; Standard Abbe refractometry
For CCCOCCC [dipropyl ether], the refractive index was 1.3784 ± 0.0005. CCCO [propan-1-ol] showed a refractive index of 1.3836 ± 0.0005. CC(C)O [propan-2-ol] gave a refractive index of 1.3754 ± 0.0005. In the case of O [water], the refractive index is reported as 1.3332 ± 0.0005. CC(C)OC(C)C [diisopropyl ether] gave a refractive index of 1.3652 ± 0.0005.
